In patent US12331046B2, “CTPS1 inhibitors and uses thereof” (Nimbus Clotho, Inc., priority 2020, dated 2025):

Target: human CTPS1 (Homo sapiens (Human), UniProt P17812)
Assay: hCTPS1 biochemical assay (ADP-Glo)
Conditions: hCTPS1 25 nM, ATP 120 uM, UTP 160 uM, GTP 60 uM, L-Glutamine 100 uM, 25 degrees C

Chain of human CTPS1 (P17812 whole entry): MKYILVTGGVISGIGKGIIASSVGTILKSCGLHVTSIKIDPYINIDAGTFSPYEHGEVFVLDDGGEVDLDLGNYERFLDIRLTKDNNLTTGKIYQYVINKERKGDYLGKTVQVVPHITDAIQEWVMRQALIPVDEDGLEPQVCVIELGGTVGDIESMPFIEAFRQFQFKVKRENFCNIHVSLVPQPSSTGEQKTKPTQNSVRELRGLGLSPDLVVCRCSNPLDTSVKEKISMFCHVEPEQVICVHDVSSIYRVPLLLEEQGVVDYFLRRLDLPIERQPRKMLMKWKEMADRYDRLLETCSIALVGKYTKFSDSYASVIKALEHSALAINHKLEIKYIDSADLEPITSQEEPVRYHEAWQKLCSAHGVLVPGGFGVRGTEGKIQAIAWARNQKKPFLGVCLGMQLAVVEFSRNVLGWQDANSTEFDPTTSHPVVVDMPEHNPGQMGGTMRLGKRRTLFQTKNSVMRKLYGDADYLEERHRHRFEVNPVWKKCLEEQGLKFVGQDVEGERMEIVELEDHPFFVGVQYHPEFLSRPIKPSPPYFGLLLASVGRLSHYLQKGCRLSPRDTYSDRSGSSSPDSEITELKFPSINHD

| IC50 | SMILES |
| --- | --- |
| 100 to 1000 nM | CCOc1cncc(-c2cnc(C(=O)N[C@@](C)(COC)c3cc(NS(=O)(=O)C4CC4)ccn3)s2)n1 [I-91, (R)—N-(2-(4-(cyclopropanesulfonamido)pyridin-2-yl)-1-methoxypropan-2-yl)-5-(6-ethoxypyrazin-2-yl)thiazole-2-carboxamide] |
| < 100 nM | CCOc1cncc(-c2cnc(C(=O)N[C@@H](c3cc(NS(=O)(=O)C4CC4)ccn3)[C@H]3C[C@@H](N(C)C)C3)s2)n1 (single isomer, unassigned) [I-108] |
| < 100 nM | CCOc1cncc(-c2cnc(C(=O)N[C@H](CN3C[C@H]4C[C@@H]3CO4)c3cc(NS(=O)(=O)C4CC4)ccn3)s2)n1 [I-112, N—((R)-2-((1R,4R)-2-oxa-5-azabicyclo[2.2.1]heptan-5-yl)-1-(4-(cyclopropanesulfonamido)pyridin-2-yl)ethyl)-5-(6-ethoxypyrazin-2-yl)thiazole-2-carboxamide] |
| < 100 nM | CCOc1cncc(-c2cnc(C(=O)NC(CCN3CC[C@H](F)C3)c3cc(NS(=O)(=O)C4CC4)ccn3)s2)n1 (stereo partly drawn) [I-130, N-(1-(4-(cyclopropanesulfonamido)pyridin-2-yl)-3-((S)-3-fluoropyrrolidin-1-yl)propyl)-5-(6-ethoxypyrazin-2-yl)thiazole-2-carboxamide] |
| < 100 nM | CCOc1cncc(-c2cnc(C(=O)N[C@H](CCN3CCCC3)c3cc(NS(=O)(=O)C4CC4)ccn3)s2)n1 [I-158, (R)—N-(1-(4-(cyclopropanesulfonamido)pyridin-2-yl)-3-(pyrrolidin-1-yl)propyl)-5-(6-ethoxypyrazin-2-yl)thiazole-2-carboxamide] |
| < 100 nM | CCOc1cncc(-c2cnc(C(=O)NC(C)(C)c3cccc(NS(=O)(=O)C(F)F)c3)s2)n1 [I-262, N-{2-[3-(difluoromethanesulfonamido)phenyl]propan-2-yl}-5-(6-ethoxypyrazin-2-yl)-1,3-thiazole-2-carboxamide] |
| 100 to 1000 nM | CCOc1cncc(-c2cnc(C(=O)N[C@](C)(CCOC)c3cc(NS(=O)(=O)C4CC4)ccn3)s2)n1 [I-157, (R)—N-(2-(4-(cyclopropanesulfonamido)pyridin-2-yl)-4-methoxybutan-2-yl)-5-(6-ethoxypyrazin-2-yl)thiazole-2-carboxamide] |
| < 100 nM | CCOc1cncc(-c2cnc(C(=O)N[C@@H](C[C@H]3CCCCN3)c3cc(NS(=O)(=O)C4CC4)ccn3)s2)n1 (single isomer, unassigned) [I-138] |
| < 100 nM | CCOc1cncc(-c2cnc(C(=O)N[C@H](C)c3cccc(NS(=O)(=O)C(F)F)c3)s2)n1 [I-272, N-[(1R)-1-[3-(difluoromethanesulfonamido)phenyl]ethyl]-5-(6-ethoxypyrazin-2-yl)-1,3-thiazole-2-carboxamide] |
| 100 to 1000 nM | CCOc1cncc(-c2ccc(C(=O)NCc3cc(NS(=O)(=O)C4CC4)ccn3)c(=O)[nH]2)n1 [I-59] |
| < 100 nM | CCOc1cncc(-c2cnc(C(=O)N[C@H](CC3CCN(C)CC3)c3cc(NS(=O)(=O)C4CC4)ccn3)s2)n1 [I-100, (R)—N-(1-(4-(cyclopropanesulfonamido)pyridin-2-yl)-2-(1-methylpiperidin-4-yl)ethyl)-5-(6-ethoxypyrazin-2-yl)thiazole-2-carboxamide] |
| < 100 nM | CCOc1cncc(-c2cnc(C(=O)N3CCNC[C@@H]3c3cc(NS(=O)(=O)C4CC4)ccn3)s2)n1 [I-212, (R)—N-(2-(1-(5-(6-ethoxypyrazin-2-yl)thiazole-2-carbonyl)piperazin-2-yl)pyridin-4-yl)cyclopropanesulfonamide] |
| < 100 nM | CCOc1cncc(-c2ccc(C(=O)NCc3cc(NS(=O)(=O)C4CC4)ncn3)nc2)n1 [I-22, N-[(6-cyclopropanesulfonamidopyrimidin-4-yl)methyl]-5-(6-ethoxypyrazin-2-yl) pyridine-2-carboxamide] |

The next lines start with the compound.

| SMILES | IC50 |
| --- | --- |
| CCOc1cncc(-c2cnc(C(=O)N[C@@H](CN3CCCC3)c3cc(NS(=O)(=O)C4CC4)ccn3)s2)n1 [I-198, (S)—N-(1-(4-(cyclopropanesulfonamido)pyridin-2-yl)-2-(pyrrolidin-1-yl)ethyl)-5-(6-ethoxypyrazin-2-yl)thiazole-2-carboxamide] | < 100 nM |
| Cc1nc(C(=O)NCc2cc(NS(=O)(=O)C3CC3)ccn2)cnc1N1CCC[C@@H](C(F)(F)F)C1 [I-55] | 100 to 1000 nM |
| CCOc1cncc(-c2cnc(C(=O)N[C@H](CN3CCCCC3)c3cc(NS(=O)(=O)C4CC4)ccn3)s2)n1 (single isomer, unassigned) [I-213] | < 100 nM |
| CCOc1cncc(-c2cnc(C(=O)N[C@H](c3cc(NS(=O)(=O)C4CC4)ccn3)[C@H]3C[C@H](N(C)C)C3)s2)n1 (single isomer, unassigned) [I-106] | < 100 nM |
| CCOc1cncc(-c2cnc(C(=O)N[C@@H](CCN3CCCC3)c3cc(NS(=O)(=O)C4CC4)ccn3)s2)n1 [I-159, (S)—N-(1-(4-(cyclopropanesulfonamido)pyridin-2-yl)-3-(pyrrolidin-1-yl)propyl)-5-(6-ethoxypyrazin-2-yl)thiazole-2-carboxamide] | < 100 nM |
| CCOc1cncc(-c2cnc(C(=O)N[C@H](CN3CCC(N(C)C)CC3)c3cc(NS(=O)(=O)C4CC4)ccn3)s2)n1 (single isomer, unassigned) [I-103] | < 100 nM |
| CCOc1cncc(-c2cnc(C(=O)N[C@H](COC)c3cc(NS(=O)(=O)C4CC4)ccn3)s2)n1 [I-188] | < 100 nM |
| CCOc1cncc(-c2cnc(C(=O)N[C@H](CC)c3cc(NS(=O)(=O)C4CC4)ccn3)s2)n1 [I-277] | < 100 nM |
| CCOc1cncc(-c2cnc(C(=O)N[C@@H](CCN(C)C)c3c(F)ccc(NS(=O)(=O)C4CC4)c3F)s2)n1 (single isomer, unassigned) [I-125] | ≥ 1000 nM |
| CCOc1cncc(-c2ccc(C(=O)NCc3ccnc(NS(=O)(=O)C4CC4)c3)cc2)n1 [I-17, N-((2-(cyclopropanesulfonamido)pyridin-4-yl)methyl)-4-(6-ethoxypyrazin-2-yl)benzamide] | 100 to 1000 nM |
| O=C(NCc1cc(NS(=O)(=O)C2CC2)ccn1)c1ncc(-c2cnn3ccc(Cl)cc23)s1 [I-197] | < 100 nM |
| CCOc1cncc(-c2cnc(C(=O)NCc3cc(NS(=O)(=O)C4CC4)ccn3)s2)n1 [I-50] | < 100 nM |
| CCOc1cncc(-n2ccc(C(=O)N3CCC[C@@H]3c3cccc(NS(=O)(=O)C(F)F)c3)n2)n1 [I-79, N-[3-[(2R)-1-[1-(6-ethoxypyrazin-2-yl)pyrazole-3-carbonyl]pyrrolidin-2-yl]phenyl]-1,1-difluoromethanesulfonamide] | ≥ 1000 nM |
| CCOc1cncc(-c2cnc(C(=O)NC(CCN(C)C)c3cccc(NS(=O)(=O)C4CC4)c3)s2)n1 (stereo not shown) [I-152, N-(1-(3-(cyclopropanesulfonamido)phenyl)-3-(dimethylamino)propyl)-5-(6-ethoxypyrazin-2-yl)thiazole-2-carboxamide] | < 100 nM |
| CCOc1cncc(-c2cnc(C(=O)NC(CN3CCN(C)CC3)c3cc(NS(=O)(=O)C4CC4)ccn3)s2)n1 (stereo not shown) [I-207] | < 100 nM |
| CCOc1cncc(-c2cnc(C(=O)N[C@@H](CN3CCC(N(C)C)CC3)c3cc(NS(=O)(=O)C4CC4)ccn3)s2)n1 (single isomer, unassigned) [I-104] | < 100 nM |
| CCOc1cncc(-c2cnc(C(=O)NCc3cc(F)cc(NS(=O)(=O)C4CC4)c3F)s2)n1 [I-250, N-[(3-cyclopropanesulfonamido-2,5-difluorophenyl)methyl]-5-(6-ethoxypyrazin-2-yl)-1,3-thiazole-2-carboxamide] | < 100 nM |
| O=C(NCc1cc(NS(=O)(=O)C2CC2)ccn1)c1ncc(-c2cnc3ccc(Cl)cn23)s1 [I-170] | 100 to 1000 nM |
